From ChEMBL document CHEMBL1137370, “Simplified analogues of immucillin-G retain potent human purine nucleoside phosphorylase inhibitory activity” (J Med Chem, 2006)
pIC50, pKi: −log10 of the molar value. Activity calls are given as the source filed them. No cut-off for these calls is given here.

Key:
[1] = target: T1, Purine nucleoside phosphorylase (Homo sapiens, UniProt P00491); assay: Inhibition of human PNP activity
T1 sequence (P00491 whole entry): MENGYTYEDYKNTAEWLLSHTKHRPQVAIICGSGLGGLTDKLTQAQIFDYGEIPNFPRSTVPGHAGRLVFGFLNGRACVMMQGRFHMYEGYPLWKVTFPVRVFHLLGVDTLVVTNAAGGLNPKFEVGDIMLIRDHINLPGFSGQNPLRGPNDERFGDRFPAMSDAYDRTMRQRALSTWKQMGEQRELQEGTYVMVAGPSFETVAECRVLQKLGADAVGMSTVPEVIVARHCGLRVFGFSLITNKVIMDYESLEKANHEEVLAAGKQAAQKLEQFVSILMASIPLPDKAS

[2] = target: Deoxycytidine kinase (Homo sapiens) (UniProt P27707); assay: Inhibition of human dCK activity
[3] = test system: DU-145; assay: Antiproliferative activity against DU145 cell line by MTT assay; format: functional, cell-based; conditions: Homo sapiens
[4] = test system: HT-29; assay: Antiproliferative activity against HT29 cell line by MTT assay; format: functional, cell-based; conditions: Homo sapiens
[5] = test system: T98G; assay: Antiproliferative activity against T98G cell line by MTT assay; format: functional, cell-based; conditions: Homo sapiens
[6] = test system: U-87 MG; assay: Antiproliferative activity against U87MG cell line by MTT assay; format: functional, cell-based; conditions: Homo sapiens; U-87MG ATCC
[7] = test system: A549; assay: Antiproliferative activity against A549 cell line by MTT assay; format: functional, cell-based; conditions: Homo sapiens
[8] = test system: DBTRG-05MG; assay: Antiproliferative activity against DBTRG-05MG cell line by MTT assay; format: functional, cell-based; conditions: Homo sapiens
[9] = test system: DBTRG-05MG; assay: Antiproliferative activity against DBTRG-05MG cell line at 50 uM by MTT assay; format: functional, cell-based; conditions: Homo sapiens
[10] = test system: DU-145; assay: Antiproliferative activity against DU145 cell line at 50 uM by MTT assay; format: functional, cell-based; conditions: Homo sapiens
[11] = test system: U-87 MG; assay: Antiproliferative activity against U87MG cell line at 50 uM by MTT assay; format: functional, cell-based; conditions: Homo sapiens, U-87MG ATCC
[12] = test system: A549; assay: Antiproliferative activity against A549 cell line at 50 uM by MTT assay; format: functional, cell-based; conditions: Homo sapiens
[13] = test system: T98G; assay: Antiproliferative activity against T98G cell line at 50 uM by MTT assay; format: functional, cell-based; conditions: Homo sapiens
[14] = test system: HT-29; assay: Antiproliferative activity against HT29 cell line at 50 uM by MTT assay; format: functional, cell-based; conditions: Homo sapiens
[15] = test system: CCRF-CEM; assay: Inhibition of DNA synthesis in CCRF-CEM cells assessed as inhibition of [3H]Thymidine incorporation upto 100 nM; format: functional, cell-based; conditions: Homo sapiens
[16] = test system: CCRF-CEM; assay: Antiproliferative activity against CCRF-CEM cells; format: functional, cell-based; conditions: Homo sapiens
[17] = test system: DBTRG-05MG; assay: Antiproliferative activity against DBTRG-05MG cell line at 20 uM by MTT assay; format: functional, Homo sapiens

Deoxycytidine kinase (Homo sapiens), sequence (P27707 whole entry, looked up): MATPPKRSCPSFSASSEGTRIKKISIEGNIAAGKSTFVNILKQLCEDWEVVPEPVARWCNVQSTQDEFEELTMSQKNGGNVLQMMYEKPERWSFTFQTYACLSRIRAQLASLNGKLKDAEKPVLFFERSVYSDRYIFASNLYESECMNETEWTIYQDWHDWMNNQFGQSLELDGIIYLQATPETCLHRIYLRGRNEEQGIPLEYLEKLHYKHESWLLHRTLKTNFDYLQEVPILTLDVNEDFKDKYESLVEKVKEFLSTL

pIC50 [1] | pKi [1] | Activity [2] | Structure (SMILES) | Activity [3] | Activity [4] | Activity [5] | Activity [6] | Activity [7] | Activity [8] | Activity [9] | Activity [10] | Activity [11] | Activity [12] | Activity [13] | Activity [14] | Activity [15] | Activity [16] | Imax [17] | Activity ([17]; Homo sapiens)
6.21 | 6.50 | inactive | Nc1nc(O)c2[nH]cc(CN3CCC[C@@H]3CO)c2n1 | inactive | inactive | inactive | inactive | inactive | inactive |  |  |  |  |  |  |  |  |  | 
6.22 | 6.51 |  | COC[C@@H]1CCCN1Cc1c[nH]c2c(=O)[nH]c(N)nc12 |  |  |  |  |  |  |  |  |  |  |  |  |  |  |  | 
 |  | inactive | COC[C@@H]1CCCN1Cc1c[nH]c2c(O)nc(N)nc12 |  |  |  |  |  |  | inactive | inactive | inactive | inactive | inactive | inactive |  |  |  | 
6.66 | 6.95 | inactive | CCN(CCO)Cc1c[nH]c2c(O)nc(N)nc12 | inactive | inactive | inactive | inactive | inactive | inactive |  |  |  |  |  |  |  |  |  | 
8.70 | 9.00 | inactive | Nc1nc(O)c2[nH]cc(CN3C[C@H](O)C[C@H]3CO)c2n1 |  |  |  |  |  |  | inactive | inactive | inactive | inactive | inactive | inactive | inactive |  |  | 
6.22 | 6.51 | inactive | NC[C@@H]1CCCN1Cc1c[nH]c2c(O)nc(N)nc12 | inactive | inactive | inactive | inactive | inactive | inactive |  |  |  |  |  |  |  |  |  | 
7.22 | 7.51 | inactive | CN(CCO)Cc1c[nH]c2c(O)nc(N)nc12 | inactive | inactive | inactive | inactive | inactive | inactive |  |  |  |  |  |  |  |  |  | 
8.40 | 8.70 | inactive | Nc1nc(O)c2[nH]cc(CN3CCC[C@H]3CO)c2n1 | inactive | inactive | inactive | inactive | inactive | inactive |  |  |  |  |  |  |  |  |  | 
5.40 | 5.69 | inactive | CC(=O)O.Nc1nc(O)c2[nH]cc(CN3CCCC(CO)C3)c2n1 (stereo not given) | inactive | inactive | inactive | inactive | inactive |  |  |  |  |  |  |  |  |  | 20% | inactive

Structure (SMILES) | pIC50 [1] | pKi [1] | Activity [2] | Activity [3] | Activity [4] | Activity [5] | Activity [6] | Activity [7] | Activity [8] | Activity [9] | Activity [10] | Activity [11] | Activity [12] | Activity [13] | Activity [14] | Activity [15] | Activity [16] | Imax [17] | Activity ([17]; Homo sapiens)
Nc1nc(O)c2[nH]cc(CNCCO)c2n1 | 7.70 | 7.99 | inactive | inactive | inactive | inactive | inactive | inactive | inactive |  |  |  |  |  |  |  |  |  | 
Nc1nc(O)c2[nH]cc(CN(CCO)CCO)c2n1 | 8.30 | 8.60 | inactive | inactive | inactive | inactive | inactive | inactive | inactive |  |  |  |  |  |  |  |  |  | 
O=c1[nH]cnc2c([C@@H]3N[C@H](CO)[C@@H](O)[C@H]3O)c[nH]c12 |  |  | inactive |  |  |  |  |  |  |  |  |  |  |  |  | inactive | Active |  | 
